Patent US20040121474A1, “Detection and evaluation of chemically-mediated and ligand-mediated t-cell activation using optophoretic analysis” (Genoptix, Inc, priority 2002, published 2004)

How the values were obtained:
Type in all cases: cell-based
U937 cells [1] = assay: Escape velocity, time and concentration dependence of PMA; set-up: Escape velocity Ave.: unit not given here
Description: This experiment was conducted to test the effect of PMA concentration on the escape velocity of U937 cells. PMA concentrations of 10 ng/ml, 1 ng/ml, 100 pg/ml, 10 pg/ml and 1 pg/ml were tested. The control sample received EtOH and not PMA.
The PMA concentration was tested at three timepoints: 1 hour, 3 hours and 5 hours. At each timepoint, 300 μl of cells were removed from each flask. The cells were then spun for 5 minutes at 5000 rpm. The cells were then resuspended in […] PBS/1% BSA and […] of trypan blue.

U937 cells [2] = assay: Escape velocity, PMA inhibition by bisindolymaleimide; details: 10 ng/ml PMA only, four hours
Excerpt: The objective of this experiment was to test the effect of bisindolymaleimide on cells exposed to PMA. Bisindolymaleimide is a Protein Kinase C inhibitor and should block the effect of PMA on U937 cells and their escape velocities. As shown in this and prior experiments, exposure of U937 cells to PMA results in an increase in the escape velocity of the cells. Therefore, it is anticipated that addition of bisindolymaleimide will reduce or eliminate the increase in escape velocity caused by PMA. This has in fact been observed in the data shown below.
Bisindolymaleimide was tested at two concentrations: 200 ng/ml and 50 ng/ml. Samples not treated with bisindolymaleimide received an equivalent amount of the carrier, MeOH, as a control. […] The concentration of PMA tested was 10 ng/ml. Samples not receiving PMA received DMSO.
Once the flasks were prepared, they were incubated at 37° C. 5% CO2 for four hours. At the four hour timepoint, 300 μl of cells were removed from each flask and pelleted at 5000 rpm for 5 minutes. The cells were then resuspended in 6 ml PBS/1% BSA and 60 μl trypan blue.

HL-60 cells [3] = assay: Escape velocity, differentiation of HL-60 cells; details: 200 ng/ml PMA
Description: Initial tests were performed using HL-60 cells treated with PMA. HL-60 cells were seeded at about 1-3×10^6 cells per well in six well plates. The cells were treated with 200 ng/ml PMA while the control cells were treated with ethanol (EtOH) vehicle for four hours at 37° C. After incubation for four hours the treated cells were washed with PBS and re-fed with growth media. The treated HL-60 cells were then allowed to differentiate for 72 hours in normal growth media. After the 72 hour period, the untreated control cells were collected by centrifugation, washed with PBS and pelleted for resuspension at 1.5×10^6 cells/ml in PBS/1% BSA. Treated cells were trypsinized and collected by centrifugation then washed in PBS and pelleted for resuspension at 1×10^6 cells/ml in PBS/1% BSA. The cells were then subjected to Optophoretic analysis by measuring the escape velocities of the treated and control cells. Table 23 shown below illustrates the measured escape velocities of the undifferentiated and differentiated cells at 72 hours post treatment.

HL-60 cells [4] = assay: Fast scan analysis, differentiation of HL-60 cells; details: 400 ng/ml PMA, differentiation into monocytes/macrophages
Description: (§1) Fast scan analysis was also performed on HL-60 cells that were treated with PMA and DMSO. A time course evaluation of PMA treated HL-60 cells was performed with fast scan data taken at 16 hours, 24 hours, 40 hours, and 72 hours post-treatment with 400 ng/ml PMA. A control sample of HL-60 cells was also tested using EtOH as the vehicle for purposes of comparing the differentiated cells with the undifferentiated HL-60 cells. The PMA-treated and control cells were harvested and trypsinized. The samples were then resuspended in PBS/1% BSA. A set of samples was also obtained and left as pellets at 4° C. for subsequent FACS analysis.
A time course evaluation of DMSO treated HL-60 cells was performed with fast scan data taken at 16 hours, 24 hours, 40 hours, and 70 hours post-treatment with 1% DMSO. A control sample of HL-60 cells was also tested for purposes of comparing the differentiated cells with the undifferentiated HL-60 cells. The DMSO-treated and control cells were then harvested and resuspended in PBS/1% BSA. A set of samples was also obtained and left as pellets at 4° C. for subsequent FACS analysis.

[5] = test system: CD11b expression in HL-60 cells; assay: FACS CD11b expression profile; details: 400 ng/ml PMA
Description: as §1
FIG. 145 illustrates a histogram of the travel distance of the control cells as well as the PMA-treated cells at 16 hours, 24 hours, 40 hours, and 72 hours post-treatment. FIG. 146 illustrates the mean travel distances of the control cells as well as the PMA-treated cells at 16 hours, 24 hours, 40 hours, and 72 hours post-treatment. FIG. 147 illustrates the FACS CD11b expression profile in PMA-treated HL-60 cells as well as the control. CD11b is a known marker of cellular differentiation and is expressed on the surface of differentiating cells. […] The data illustrate that Optophoretic analysis can be used as an assay for the detection and quantification of cellular differentiation. […]

SMILES: CCCCCCCCCCCCCC(=O)O[C@@H]1[C@@H](C)[C@@]2(O)[C@@H](C=C(CO)C[C@]3(O)C(=O)C(C)=C[C@@H]23)[C@@H]2C(C)(C)[C@]12OC(C)=O [PMA, phorbol 12 myristate 13-acetate]
- Escape velocity Ave. (U937 cells [1]; 10 pg/ml PMA, 1 Hour Activation): 14.4
- Escape velocity Ave. (U937 cells [1]; 10 pg/ml PMA, 3 Hour Activation): 14.5
- Escape velocity Ave. (U937 cells [1]; 10 pg/ml PMA, 5 Hour Activation): 14.1
- Escape velocity Ave. (U937 cells [1]; 100 pg/ml PMA, 1 Hour Activation): 14.4
- Escape velocity Ave. (U937 cells [1]; 100 pg/ml PMA, 3 Hour Activation): 15.5
- Escape velocity Ave. (U937 cells [1]; 100 pg/ml PMA, 5 Hour Activation): 16.1
- Escape velocity Ave. (U937 cells [1]; 1 ng/ml PMA, 1 Hour Activation): 14.3
- Escape velocity Ave. (U937 cells [1]; 1 ng/ml PMA, 3 Hour Activation): 15.1
- Escape velocity Ave. (U937 cells [1]; 1 ng/ml PMA, 5 Hour Activation): 16.5
- Escape velocity Ave. (U937 cells [1]; 10 ng/ml PMA, 1 Hour Activation): 14.8
- Escape velocity Ave. (U937 cells [1]; 10 ng/ml PMA, 3 Hour Activation): 15.2
- Escape velocity Ave. (U937 cells [1]; 10 ng/ml PMA, 5 Hour Activation): 16.2
- Optophoretic difference (escape velocity) (U937 cells [1]; two lowest concentrations, 10 pg/ml and 1 pg/ml): no Optophoretic difference
- Escape velocity Ave. (U937 cells [2]): 15.4 μm/sec
- Escape velocity Average (HL-60 cells [3]; HL-60 + PMA at 72 hours (differentiated), control 11.9): 14.0 μm/sec
- increase in measured escape velocity as compared to the control cells (HL-60 cells [3]; HL-60 cells, 72 hours): about 2 μm/se c
- time after treatment at which Optophoretic analysis detected cellular differentiation (HL-60 cells [4]): ≤ 16 h
- time after treatment at which a noticeable change in CD11b expression levels was observed [5]: about 40 hours
